# According to patent publication US20050245399A1, “Pyrazole derivatives as herbicidal compositions containing them” (ISHIHARA SANGYO KAISHA, LTD., priority 2004, published 2005):
# What was measured:
# Assay type in all cases: in vivo
# [1] = system: velvetleaf (Abutilon theophrasti): ABUTH; test: Test Example 1 pre-emergence herbicidal activity, ABUTH; settings: visually observed 20th to 23rd day after application
# In short: (§1)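 Scoring was visual growth control (0 = untreated, 100 = complete kill) on days 20–23 post-application. Treatment came as a pre-emergence spray one day after sowing in upland soil, using wettable powder or emulsifiable concentrate diluted in 500 L/ha water at predetermined active-ingredient amounts.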
# [2] = system: barnyardgrass (Echinochloa crus-galli L.), ECHCG; test: Test Example 2 post-emergence (foliage treatment) herbicidal activity, ECHCG; settings: 63 g a.i./ha
# In short: (§2)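 Visual rating of growth control, from 0 (untreated-like) to 100 (complete kill), was done 20–23 days after post-emergence spraying. Wettable powder or emulsifiable concentrate was diluted to 500 L/ha with 0.1% (v/v) spreader. Leaf stages at application were 1.1-2.1 (ECHCG), 1.0-2.0 (DIGSA), 0.1-1.5 (AMARE) and 1.0-2 (ORYSA).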
# [3] = system: redroot pigweed (Amaranthus retroflexus L.), AMARE; test: Test Example 2 post-emergence (foliage treatment) herbicidal activity, AMARE; settings: 63 g a.i./ha
# In short: as §2
# [4] = system: japanese bulrush (Scirpus juncoides: SCPJO); test: Test Example 3 water application herbicidal activity (paddy), SCPJO; settings: 63 g a.i./ha, water application under submerged condition at 0.5 leaf stage, visually observed 14th day after application; 0 = untreated control, 100 = complete kill
# In short: (§3)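 Compound, as diluted wettable powder or emulsifiable concentrate, was pipetted into flood water at a set active-ingredient dose. Weeds were treated at 0.5-leaf stage after sowing or tuber planting; 2-leaf rice 4 days post-transplant. Control scored visually, 0 untreated to 100 complete kill, weeds day 14, rice day 21.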
# [5] = system: prickly sida (Sida spinosa L.), SIDSP; test: Test Example 2 post-emergence (foliage treatment) herbicidal activity, SIDSP; settings: 63 g a.i./ha
# In short: (§4)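 Each species was evaluated for growth suppression by eye, 0% matching untreated and 100% meaning death, some 20 to 23 days after a single post-emergence foliar treatment applied in 500 L/ha of water carrying 0.1% (v/v) agricultural spreader.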
# [6] = system: barnyardgrass (Echinochiloa oryzicola: ECHOR); test: Test Example 3 water application herbicidal activity (paddy), ECHOR; settings: 63 g a.i./ha, water application under submerged condition at 0.5 leaf stage, visually observed 14th day after application; 0 = untreated control, 100 = complete kill
# In short: as §3
# [7] = system: rice (Oryza sativa L.): ORYSA; test: Test Example 1 pre-emergence herbicidal activity, ORYSA; settings: visually observed 20th to 23rd day after application
# In short: as §1
# [8] = system: green foxtail (Setaria viridis L.), SETVI; test: Test Example 2 post-emergence (foliage treatment) herbicidal activity, SETVI; settings: 63 g a.i./ha
# In short: as §4
# [9] = system: prickly sida (Sida spinosa L.): SEDSP; test: Test Example 1 pre-emergence herbicidal activity, SIDSP; settings: visually observed 20th to 23rd day after application
# In short: as §1
# [10] = system: wheat (Triticum aestivum L.), TRZAX; test: Test Example 2 post-emergence (foliage treatment) herbicidal activity, TRZAX; settings: 63 g a.i./ha
# In short: as §4
# [11] = system: corn (Zea mays L.): ZEAMX; test: Test Example 1 pre-emergence herbicidal activity, ZEAMX; settings: visually observed 20th to 23rd day after application
# In short: as §1
# [12] = system: corn (Zea mays L.), ZEAMX; test: Test Example 2 post-emergence (foliage treatment) herbicidal activity, ZEAMX; settings: 63 g a.i./ha
# In short: as §4
# [13] = system: rice (Oryza sativa L.), ORYSA; test: Test Example 2 post-emergence (foliage treatment) herbicidal activity, ORYSA; settings: 63 g a.i./ha
# In short: as §2
# [14] = system: japanese ribbon wapato (Sagittaria pygmaea: SA GPY); test: Test Example 3 water application herbicidal activity (paddy), SAGPY; settings: 63 g a.i./ha, water application under submerged condition, tubers planted, visually observed 14th day after application; 0 = untreated control, 100 = complete kill
# In short: as §3
# [15] = system: velvetleaf (Abutilon theophrasti), ABUTH; test: Test Example 2 post-emergence (foliage treatment) herbicidal activity, ABUTH; settings: 63 g a.i./ha
# In short: as §4
# [16] = system: green foxtail (Setaria viridis L.): SETVI; test: Test Example 1 pre-emergence herbicidal activity, SETVI; settings: visually observed 20th to 23rd day after application
# In short: as §1
# [17] = system: wheat (Triticum aestivum L.): TRZAX; test: Test Example 1 pre-emergence herbicidal activity, TRZAX; settings: visually observed 20th to 23rd day after application
# In short: as §1
# [18] = system: crabgrass (Digitaria sanguinalis L.): DIGSA; test: Test Example 1 pre-emergence herbicidal activity, DIGSA; settings: visually observed 20th to 23rd day after application
# In short: as §1
# [19] = system: crabgrass (Digitaria sanguinalis L.), DIGSA; test: Test Example 2 post-emergence (foliage treatment) herbicidal activity, DIGSA; settings: 63 g a.i./ha
# In short: as §2
# [20] = system: soybean (Glycine max Merr.), GLXMA; test: Test Example 2 post-emergence (foliage treatment) herbicidal activity, GLXMA; settings: 63 g a.i./ha
# In short: as §4
# [21] = system: barnyardgrass (Echinochloa crus-galli L.): ECHCG; test: Test Example 1 pre-emergence herbicidal activity, ECHCG; settings: visually observed 20th to 23rd day after application
# In short: as §1
# [22] = system: redroot pigweed (Amaranthus retroflexus L.): AMARE; test: Test Example 1 pre-emergence herbicidal activity, AMARE; settings: visually observed 20th to 23rd day after application
# In short: as §1
# [23] = system: soybean (Glycine max Merr.): GLXMA; test: Test Example 1 pre-emergence herbicidal activity, GLXMA; settings: visually observed 20th to 23rd day after application
# In short: as §1
# [24] = system: rice (Oryza sativa L.: ORYSA); test: Test Example 3 water application herbicidal activity (paddy), transplanted rice ORYSA; settings: 63 g a.i./ha, water application 4th day after transplantation of 2 leaf stage rice, visually observed 21st day after application; 0 = untreated control, 100 = complete kill
# In short: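 Rice at 2-leaf stage is transplanted into flooded puddled soil and treated by water application 4 days later, at a predetermined active-ingredient dose. Crop injury is rated visually as growth control (0–100%) 21 days after treatment.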
Compound,"growth controlling degree, ECHCO [2]","growth controlling degree, AMARE [3]",growth controlling degrees (%) SCPJO [4],"growth controlling degree, SIDSP [5]",growth controlling degrees (%) ECHOR [6],"growth controlling degree, SETVI [8]","growth controlling degree, TRZAX [10]","growth controlling degree, ZEAMX [12]","growth controlling degree, ORYSA [13]",growth controlling degrees (%) SAGPY [14],"growth controlling degree, ABUTH [15]","growth controlling degree, DIGSP [19]","growth controlling degree, GLXMA [20]",growth controlling degrees (%) ORYSA [24],Pre-emergence Herbicidal Activity ABUTH (growth controlling degree) ([1]; Rate 63 g a.i./ha),Pre-emergence Herbicidal Activity ORYSA (growth controlling degree) ([7]; Rate 63 g a.i./ha),Pre-emergence Herbicidal Activity SIDSP (growth controlling degree) ([9]; Rate 63 g a.i./ha),Pre-emergence Herbicidal Activity ZEAMX (growth controlling degree) ([11]; Rate 63 g a.i./ha),Pre-emergence Herbicidal Activity SETVI (growth controlling degree) ([16]; Rate 63 g a.i./ha),Pre-emergence Herbicidal Activity TRZAX (growth controlling degree) ([17]; Rate 63 g a.i./ha),other results
COc1ccc(OC(=O)N(C(=O)Oc2ccc(OC)cc2)c2c(OC)c(Cl)cc(F)c2-c2nn(C)c(OC(F)F)c2Cl)cc1 [Compound 1-65],0%,10%,0%,0%,50%,0%,0%,0%,0%,0%,0%,0%,10%,20%,–,–,–,–,–,–,Pre-emergence Herbicidal Activity ABUTH (growth controlling degree) ([1]; Rate 125 g a.i./ha): 10%; Pre-emergence Herbicidal Activity ORYSA (growth controlling degree) ([7]; Rate 125 g a.i./ha): 0%; Pre-emergence Herbicidal Activity SIDSP (growth controlling degree) ([9]; Rate 125 g a.i./ha): 10%; Pre-emergence Herbicidal Activity ZEAMX (growth controlling degree) ([11]; Rate 125 g a.i./ha): 0%; Pre-emergence Herbicidal Activity SETVI (growth controlling degree) ([16]; Rate 125 g a.i./ha): 10%; Pre-emergence Herbicidal Activity TRZAX (growth controlling degree) ([17]; Rate 125 g a.i./ha): 0%; Pre-emergence Herbicidal Activity DIGSP (growth controlling degree) ([18]; Rate 125 g a.i./ha): 0%; Pre-emergence Herbicidal Activity ECHCG (growth controlling degree) ([21]; Rate 125 g a.i./ha): 0%; Pre-emergence Herbicidal Activity AMARE (growth controlling degree) ([22]; Rate 125 g a.i./ha): 20%; Pre-emergence Herbicidal Activity GLXMA (growth controlling degree) ([23]; Rate 125 g a.i./ha): 0%
Cn1nc(-c2c(F)cc(Cl)c(OC(F)F)c2NCc2ccccc2)c(Cl)c1OC(F)F [Compound 1-88],100%,100%,80%,100%,100%,100%,30%,60%,30%,60%,100%,98%,60%,20%,70%,10%,80%,0%,70%,0%,Pre-emergence Herbicidal Activity DIGSP (growth controlling degree) ([18]; Rate 63 g a.i./ha): 98%; Pre-emergence Herbicidal Activity ECHCG (growth controlling degree) ([21]; Rate 63 g a.i./ha): 50%; Pre-emergence Herbicidal Activity AMARE (growth controlling degree) ([22]; Rate 63 g a.i./ha): 100%; Pre-emergence Herbicidal Activity GLXMA (growth controlling degree) ([23]; Rate 63 g a.i./ha): 40%
COc1c(Cl)cc(F)c(-c2nn(C)c(OC(F)F)c2Cl)c1N(C(=O)OCCl)C(=O)OCCl [Compound 1-55],60%,100%,95%,100%,100%,30%,10%,10%,50%,100%,100%,0%,30%,50%,–,–,–,–,–,–,Pre-emergence Herbicidal Activity ABUTH (growth controlling degree) ([1]; Rate 125 g a.i./ha): 70%; Pre-emergence Herbicidal Activity ORYSA (growth controlling degree) ([7]; Rate 125 g a.i./ha): 10%; Pre-emergence Herbicidal Activity SIDSP (growth controlling degree) ([9]; Rate 125 g a.i./ha): 95%; Pre-emergence Herbicidal Activity ZEAMX (growth controlling degree) ([11]; Rate 125 g a.i./ha): 0%; Pre-emergence Herbicidal Activity SETVI (growth controlling degree) ([16]; Rate 125 g a.i./ha): 100%; Pre-emergence Herbicidal Activity TRZAX (growth controlling degree) ([17]; Rate 125 g a.i./ha): 20%; Pre-emergence Herbicidal Activity DIGSP (growth controlling degree) ([18]; Rate 125 g a.i./ha): 95%; Pre-emergence Herbicidal Activity ECHCG (growth controlling degree) ([21]; Rate 125 g a.i./ha): 50%; Pre-emergence Herbicidal Activity AMARE (growth controlling degree) ([22]; Rate 125 g a.i./ha): 100%; Pre-emergence Herbicidal Activity GLXMA (growth controlling degree) ([23]; Rate 125 g a.i./ha): 0%
COc1c(Cl)cc(F)c(-c2nn(C)c(OC(F)F)c2Cl)c1NC(=O)c1ccccc1C [Compound 1-24],100%,100%,80%,100%,100%,100%,50%,90%,98%,90%,100%,98%,100%,60%,100%,60%,100%,10%,100%,20%,Pre-emergence Herbicidal Activity DIGSP (growth controlling degree) ([18]; Rate 63 g a.i./ha): 100%; Pre-emergence Herbicidal Activity ECHCG (growth controlling degree) ([21]; Rate 63 g a.i./ha): 95%; Pre-emergence Herbicidal Activity AMARE (growth controlling degree) ([22]; Rate 63 g a.i./ha): 100%; Pre-emergence Herbicidal Activity GLXMA (growth controlling degree) ([23]; Rate 63 g a.i./ha): 10%
Cn1nc(-c2c(F)cc(Cl)c(OC(F)F)c2NC=O)c(Cl)c1OC(F)F [Compound 1-82],100%,100%,98%,100%,100%,100%,60%,70%,70%,100%,100%,100%,90%,60%,100%,80%,100%,40%,100%,60%,Pre-emergence Herbicidal Activity DIGSP (growth controlling degree) ([18]; Rate 63 g a.i./ha): 100%; Pre-emergence Herbicidal Activity ECHCG (growth controlling degree) ([21]; Rate 63 g a.i./ha): 100%; Pre-emergence Herbicidal Activity AMARE (growth controlling degree) ([22]; Rate 63 g a.i./ha): 100%; Pre-emergence Herbicidal Activity GLXMA (growth controlling degree) ([23]; Rate 63 g a.i./ha): 10%
